Reference: PubChem BioAssay (NCI)
Values joined by “and” are separate entries in the source; they are usually repeats but may differ in a detail not shown here. Identical values can stand only once.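 Briefly, cells in 96-well plates were exposed to five compound concentrations for 48 h, and endpoints were estimated by linear interpolation. GI50: concentration for 50% inhibition of growth. Definition used: TGI = concentration required for complete inhibition of growth.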

Assays:
Assay in all cases: inhibition of tumour cell growth, NCI panel, 48 h
LOX IMVI melanoma = system: LOX IMVI melanoma
SF-539 CNS = system: SF-539 CNS
NCI-H23 lung = system: NCI-H23 lung
MDA-MB-435 = system: MDA-MB-435
SK-OV-3 ovarian = system: SK-OV-3 ovarian
NCI-H226 lung = system: NCI-H226 lung
PC-3 prostate = system: PC-3 prostate
RXF 393 renal = system: RXF 393 renal
HCT-15 colon = system: HCT-15 colon
MALME-3M melanoma = system: MALME-3M melanoma
NCI-H460 lung = system: NCI-H460 lung
HL-60(TB) leukemia = system: HL-60(TB) leukemia
MCF7 breast = system: MCF7 breast
EKVX NSCLC = system: EKVX NSCLC
DU-145 prostate = system: DU-145 prostate
UO-31 renal = system: UO-31 renal
SNB-19 CNS = system: SNB-19 CNS
SR leukemia = system: SR leukemia
UACC-62 melanoma = system: UACC-62 melanoma
HOP-62 NSCLC = system: HOP-62 NSCLC
TK-10 renal = system: TK-10 renal
HT29 colon = system: HT29 colon
SW-620 colon = system: SW-620 colon
HCC-2998 colon = system: HCC-2998 colon
MDA-MB-231 breast = system: MDA-MB-231 breast
OVCAR-4 ovarian = system: OVCAR-4 ovarian
SF-295 CNS = system: SF-295 CNS
HCT-116 colon = system: HCT-116 colon
CAKI-1 renal = system: CAKI-1 renal
SK-MEL-5 melanoma = system: SK-MEL-5 melanoma
A498 renal = system: A498 renal
SF-268 CNS = system: SF-268 CNS
SN12C renal = system: SN12C renal
NCI/ADR-RES ovarian = system: NCI/ADR-RES ovarian
ACHN renal = system: ACHN renal
IGROV1 ovarian = system: IGROV1 ovarian
HOP-92 NSCLC = system: HOP-92 NSCLC
SK-MEL-28 melanoma = system: SK-MEL-28 melanoma
OVCAR-8 ovarian = system: OVCAR-8 ovarian
OVCAR-5 ovarian = system: OVCAR-5 ovarian
T-47D breast = system: T-47D breast
HS 578T breast = system: HS 578T breast
SK-MEL-2 melanoma = system: SK-MEL-2 melanoma
SNB-75 CNS = system: SNB-75 CNS
COLO 205 colon = system: COLO 205 colon
KM12 colon = system: KM12 colon
M14 melanoma = system: M14 melanoma
NCI-H522 lung = system: NCI-H522 lung
BT-549 breast = system: BT-549 breast
A549 NSCLC = system: A549 NSCLC
UACC-257 melanoma = system: UACC-257 melanoma
OVCAR-3 ovarian = system: OVCAR-3 ovarian
CCRF-CEM leukemia = system: CCRF-CEM leukemia
RPMI-8226 leukemia = system: RPMI-8226 leukemia
786-0 renal = system: 786-0 renal
U251 CNS = system: U251 CNS
MOLT-4 leukemia = system: MOLT-4 leukemia
K-562 leukemia = system: K-562 leukemia

## COc1cc(C2C3=C(COC3=O)N(CCO)c3cc4c(cc32)OCO4)cc(OC)c1OC (stereo not given)
LOX IMVI melanoma
  GI50: 976 nM
  TGI: > 16800 nM
SF-539 CNS
  GI50: 323 nM and 434 nM
  TGI: 947 nM and 3010 nM
NCI-H23 lung
  GI50: 412 nM and 574 nM
  TGI: 2460 nM and > 16800 nM
MDA-MB-435
  GI50: 175 nM and 151 nM
  TGI: 592 nM and 616 nM
SK-OV-3 ovarian
  GI50: 456 nM and 491 nM
  TGI: 7710 nM and > 16800 nM
NCI-H226 lung
  GI50: > 12500 nM and 2940 nM
  TGI: > 16800 nM
PC-3 prostate
  GI50: 611 nM and 612 nM
  TGI: 12500 nM and > 16800 nM
RXF 393 renal
  GI50: 176 nM and 337 nM
  TGI: 501 nM and 931 nM
HCT-15 colon
  GI50: 1520 nM and 1130 nM
  TGI: 12500 nM and > 16800 nM
MALME-3M melanoma
  GI50: 532 nM and 745 nM
  TGI: 12500 nM and > 16800 nM
NCI-H460 lung
  GI50: 438 nM and 542 nM
  TGI: 12500 nM and 3400 nM
HL-60(TB) leukemia
  GI50: 343 nM and 629 nM
MCF7 breast
  GI50: 409 nM and 426 nM
  TGI: 12500 nM and > 16800 nM
EKVX NSCLC
  GI50: 6650 nM and 1030 nM
  TGI: 12500 nM and > 16800 nM
DU-145 prostate
  GI50: 342 nM and 550 nM
  TGI: 1020 nM and 2590 nM
UO-31 renal
  TGI: 12500 nM and > 16800 nM
SNB-19 CNS
  GI50: 408 nM and 720 nM
  TGI: 6650 nM and > 16800 nM
SR leukemia
  GI50: 323 nM
  TGI: > 16800 nM
UACC-62 melanoma
  GI50: 1000 nM and 565 nM
  TGI: 12500 nM and > 16800 nM
HOP-62 NSCLC
  GI50: 779 nM and 738 nM
  TGI: 12500 nM and > 16800 nM
TK-10 renal
  GI50: 1240 nM and 2730 nM
  TGI: 12500 nM and > 16800 nM
HT29 colon
  GI50: 403 nM and 585 nM
  TGI: 1940 nM and 2030 nM
SW-620 colon
  GI50: 439 nM and 697 nM
  TGI: 12500 nM and > 16800 nM
HCC-2998 colon
  GI50: 697 nM and 702 nM
  TGI: 6210 nM and 5110 nM
MDA-MB-231 breast
  GI50: 971 nM and 1600 nM
  TGI: 12500 nM and > 16800 nM
OVCAR-4 ovarian
  GI50: 706 nM and 987 nM
  TGI: 12500 nM and > 16800 nM
SF-295 CNS
  GI50: 537 nM and 235 nM
HCT-116 colon
  GI50: 468 nM and 524 nM
  TGI: 12500 nM and 13800 nM
CAKI-1 renal
  GI50: 8660 nM and 2390 nM
  TGI: 12500 nM and > 16800 nM
SK-MEL-5 melanoma
  GI50: 359 nM and 561 nM
  TGI: 2460 nM and 4350 nM
A498 renal
  GI50: 257 nM and 407 nM
  TGI: 1070 nM and 8820 nM
SF-268 CNS
  GI50: 321 nM and 872 nM
  TGI: 2050 nM and > 16800 nM
SN12C renal
  GI50: 1250 nM and 1130 nM
  TGI: 12500 nM and > 16800 nM
NCI/ADR-RES ovarian
  GI50: 3920 nM and 14800 nM
  TGI: 12500 nM and > 16800 nM
ACHN renal
  GI50: 1090 nM and 925 nM
  TGI: 12500 nM and > 16800 nM
IGROV1 ovarian
  GI50: 328 nM and 625 nM
  TGI: 1970 nM and 6300 nM
HOP-92 NSCLC
  GI50: 6020 nM and 5990 nM
  TGI: 12500 nM and > 16800 nM
SK-MEL-28 melanoma
  GI50: 706 nM and 1080 nM
  TGI: 12500 nM and > 16800 nM
OVCAR-8 ovarian
  GI50: 427 nM and 770 nM
  TGI: 12500 nM and > 16800 nM
OVCAR-5 ovarian
  GI50: 1660 nM and 500 nM
  TGI: 12500 nM and > 16800 nM
T-47D breast
  GI50: 474 nM
  TGI: 12500 nM
HS 578T breast
  GI50: 276 nM and 268 nM
SK-MEL-2 melanoma
  GI50: 298 nM and 979 nM
SNB-75 CNS
  GI50: 514 nM and 251 nM
  TGI: 12500 nM and > 16800 nM
COLO 205 colon
  GI50: 360 nM and 332 nM
  TGI: 1020 nM and 765 nM
KM12 colon
  GI50: 334 nM and 462 nM
  TGI: 2310 nM and 8860 nM
M14 melanoma
  GI50: 311 nM and 363 nM
  TGI: 926 nM and 1380 nM
NCI-H522 lung
  GI50: 173 nM and 260 nM
  TGI: 666 nM and 1250 nM
BT-549 breast
  GI50: 4330 nM and 834 nM
  TGI: 12500 nM and 9330 nM
A549 NSCLC
  GI50: 595 nM and 1060 nM
  TGI: 12500 nM and > 16800 nM
UACC-257 melanoma
  TGI: 12500 nM and > 16800 nM
OVCAR-3 ovarian
  GI50: 244 nM and 319 nM
  TGI: 542 nM and 668 nM
CCRF-CEM leukemia
  GI50: 473 nM and 802 nM
  TGI: 12500 nM and > 16800 nM
RPMI-8226 leukemia
  GI50: 521 nM and 715 nM
  TGI: 12500 nM and > 16800 nM
786-0 renal
  GI50: 474 nM and 754 nM
  TGI: 12500 nM and > 16800 nM
U251 CNS
  GI50: 500 nM and 631 nM
  TGI: 12500 nM and > 16800 nM
MOLT-4 leukemia
  GI50: 675 nM and 4390 nM
  TGI: 12500 nM and > 16800 nM
K-562 leukemia
  GI50: 406 nM and 489 nM
  TGI: 12500 nM and > 16800 nM
